Source: BindingDB's records for doi:10.1021/acs.jmedchem.9b00881 (University of Auckland, 2020)

How the values were obtained:
[1] = Inhibition of perforin (unknown origin) assessed as reduction in perforin-mediated cell lysis in human Jurkat T cells incubated for 30 mins by 51Cr release based gamma counting method
[2] = Inhibition of perforin in human KHYG-1 cells pre-treated with compound for 20 mins assessed as reduction in KHYG-1 cells-mediated cell lysis of human K562 cells measured after 4 hrs by 51Cr release based gamma counting method

Compound	IC50 [1] [µM]	IC50 [2] [µM]
COc1ncc(-c2ccc(-c3cnc4c(c3)CN(C)C4=O)s2)cc1NS(=O)(=O)c1ccccc1C(F)(F)F	0.78	2.21
O=C1NCc2ncc(-c3ccc(-c4cncc(NS(=O)(=O)c5ccc(F)cc5F)c4)s3)cc21	> 20	6.8
O=C1c2ccc(-c3ccc(-c4cncc(NS(=O)(=O)c5ccc(F)cc5F)c4)s3)cc2CN1CCCO	> 20	–
O=C1c2ccc(-c3ccc(-c4cncc(NS(=O)(=O)c5ccc(F)cc5F)c4)s3)cc2CN1CC(O)CO (configuration not stated)	14.2	–
O=C1c2ccc(-c3ccc(-c4cncc(NS(=O)(=O)c5ccc(F)cc5F)c4)s3)cc2CN1CCN1CCCC1	> 20	–
O=C1c2ccc(-c3ccc(-c4cncc(NS(=O)(=O)c5ccc(F)cc5F)c4)s3)cc2CN1CCN1CCCCC1	> 20	–
O=C1NCc2cc(-c3ccc(-c4cncc(NS(=O)(=O)c5ccc(F)cc5F)c4)s3)cnc21	5.73	–
CN1Cc2cc(-c3ccc(-c4cncc(NS(=O)(=O)c5cccc(C(F)(F)F)c5)c4)s3)cnc2C1=O	> 20	3.4
CN1Cc2cc(-c3ccc(-c4cncc(NS(=O)(=O)c5ccc(F)cc5F)c4)s3)cnc2C1=O	4.3	7.5
COc1ncc(-c2ccc(-c3cnc4c(c3)CN(C)C4=O)s2)cc1NS(=O)(=O)c1ccccc1[N+](=O)[O-]	2.3	1.6
CN1Cc2cc(-c3ccc(-c4cncc(NS(=O)(=O)c5ccccc5C(F)(F)F)c4)s3)cnc2C1=O	1.38	3.3
COc1ncc(-c2ccc(-c3cnc4c(c3)CN(C)C4=O)s2)cc1NS(=O)(=O)c1ccc(F)cc1F	3.34	4.43
CN1CCN(CCN2Cc3cc(-c4ccc(-c5cncc(NS(=O)(=O)c6ccc(F)cc6F)c5)s4)ccc3C2=O)CC1	> 20	–
CN(C)CCN1Cc2cc(-c3ccc(-c4cncc(NS(=O)(=O)c5ccc(F)cc5F)c4)s3)ccc2C1=O	> 20	–
O=C1c2ccc(-c3ccc(-c4cncc(NS(=O)(=O)c5ccc(F)cc5F)c4)s3)cc2CN1CCN1CCOCC1	17	–
